Consider four compounds from patent US6784137B2, “6-aryl-4-aminopicolinates and their use as herbicides” (Dow AgroSciences LLC, priority 2001, dated 2004).

The term melting point denotes the temperature of the solid-liquid transition.

The subject of one data set is Barnyardgrass (Echinochloa crus-galli). The data set can be described thus: Postemergence herbicidal activity, greenhouse spray. Conditions: Echinochloa crus-galli, post-emergence, 336 h, Table 1; rate 500 ppm; visual score after 2 weeks; read-out: Post-emergent % control ECHCG. The data set is classed as in vivo. The method in brief:
(§1)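 Plants grown 7-21 days in a greenhouse (~15 hr photoperiod, about 23-29° C day/22-28° C night) and treated at the first or second true leaf stage. Compounds in acetone:DMSO 97:3 were diluted into an aqueous acetone/isopropyl alcohol/crop oil/Triton X-155 carrier and sprayed to thorough coverage. Controls received carrier alone.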
For the compound `Nc1cc(-c2ccc(Cl)c(F)c2)nc(C(=O)O)c1Cl` [Compound 181, 4-Amino-3-chloro-6-(4-chloro-3-fluorophenyl)pyridine-2-carboxylic acid], the pest or weed control at 500 ppm amounted to 100%.

Regarding `CCc1ccc(-c2cc(N)c(Cl)c(C(=O)O)n2)cc1` [Compound 175, 4-Amino-3-chloro-6-(4-ethylphenyl)pyridine-2-carboxylic acid], the pest or weed control at 500 ppm amounted to 80%.

As to `Cc1ccc(-c2nc(C(=O)O)c(F)c(N)c2F)cc1` [Compound 203, 4-Amino-3,5-difluoro-6-(4-methylphenyl)pyridine-2-carboxylic acid], the pest or weed control at 500 ppm was found to be 95%.

In the case of `Nc1cc(-c2ccc(F)c(Cl)c2)nc(C(=O)O)c1Cl` [Compound 151, 4-Amino-3-chloro-6-(3-chloro-4-fluorophenyl)pyridine-2-carboxylic acid], the pest or weed control at 500 ppm was 100%.

Still in this data set, the particulars now being: Echinochloa crus-galli, post-emergence, 336 h, Table 2; rate 125 ppm; visual score after 2 weeks; read-out: Post-emergent % control ECHCG.
As to `Nc1cc(-c2ccc(Cl)c(F)c2)nc(C(=O)O)c1Cl` [Compound 181, 4-Amino-3-chloro-6-(4-chloro-3-fluorophenyl)pyridine-2-carboxylic acid], the pest or weed control at 125 ppm came to 70%.

On to `Nc1cc(-c2ccc(F)c(Cl)c2)nc(C(=O)O)c1Cl` [Compound 151, 4-Amino-3-chloro-6-(3-chloro-4-fluorophenyl)pyridine-2-carboxylic acid], for which the pest or weed control at 125 ppm stood at 85%.

A further data set concerns Cocklebur (Xanthium strumarium). The data set is described as above. Format: in vivo. Conditions: Xanthium strumarium, post-emergence, 336 h; Table 1; rate 500 ppm; visual score after 2 weeks, 0 no injury, 100 complete kill; read-out: Post-emergent % control XANST. The procedure, abridged:
as §1
Regarding `Nc1cc(-c2ccc(Cl)c(F)c2)nc(C(=O)O)c1Cl` [Compound 181, 4-Amino-3-chloro-6-(4-chloro-3-fluorophenyl)pyridine-2-carboxylic acid], the pest or weed control at 500 ppm turned out to be 100%.

In the case of `CCc1ccc(-c2cc(N)c(Cl)c(C(=O)O)n2)cc1` [Compound 175, 4-Amino-3-chloro-6-(4-ethylphenyl)pyridine-2-carboxylic acid], the pest or weed control at 500 ppm was found to be 100%.

In the case of `Cc1ccc(-c2nc(C(=O)O)c(F)c(N)c2F)cc1` [Compound 203, 4-Amino-3,5-difluoro-6-(4-methylphenyl)pyridine-2-carboxylic acid], the pest or weed control at 500 ppm amounted to 100%.

Turning to `Nc1cc(-c2ccc(F)c(Cl)c2)nc(C(=O)O)c1Cl` [Compound 151, 4-Amino-3-chloro-6-(3-chloro-4-fluorophenyl)pyridine-2-carboxylic acid], the pest or weed control at 500 ppm is 100%.

Still in this data set, the particulars now being: Xanthium strumarium, post-emergence, 336 h; Table 2; rate 125 ppm; visual score after 2 weeks; read-out: Post-emergent % control XANST.
Turning to `Nc1cc(-c2ccc(Cl)c(F)c2)nc(C(=O)O)c1Cl` [Compound 181, 4-Amino-3-chloro-6-(4-chloro-3-fluorophenyl)pyridine-2-carboxylic acid], the pest or weed control at 125 ppm turned out to be 100%.

On to `Nc1cc(-c2ccc(F)c(Cl)c2)nc(C(=O)O)c1Cl` [Compound 151, 4-Amino-3-chloro-6-(3-chloro-4-fluorophenyl)pyridine-2-carboxylic acid], for which the pest or weed control at 125 ppm was found to be 100%.

In the next data set the test system is Lambsquarter (Chenopodium album). The data set is described as above. The data set is classed as in vivo. Conditions: Chenopodium album, post-emergence, 336 h; Table 1; rate 500 ppm; visual score after 2 weeks; read-out: Post-emergent % control CHEAL. The method in brief: as §1
Take `Nc1cc(-c2ccc(Cl)c(F)c2)nc(C(=O)O)c1Cl` [Compound 181, 4-Amino-3-chloro-6-(4-chloro-3-fluorophenyl)pyridine-2-carboxylic acid]: the pest or weed control at 500 ppm came to 100%.

Turning to `CCc1ccc(-c2cc(N)c(Cl)c(C(=O)O)n2)cc1` [Compound 175, 4-Amino-3-chloro-6-(4-ethylphenyl)pyridine-2-carboxylic acid], the pest or weed control at 500 ppm worked out at 99%.

As to `Cc1ccc(-c2nc(C(=O)O)c(F)c(N)c2F)cc1` [Compound 203, 4-Amino-3,5-difluoro-6-(4-methylphenyl)pyridine-2-carboxylic acid], the pest or weed control at 500 ppm stood at 100%.

As to `Nc1cc(-c2ccc(F)c(Cl)c2)nc(C(=O)O)c1Cl` [Compound 151, 4-Amino-3-chloro-6-(3-chloro-4-fluorophenyl)pyridine-2-carboxylic acid], the pest or weed control at 500 ppm was determined as 100%.

Staying with this data set, now noted: Chenopodium album, post-emergence, 336 h; Table 2; rate 125 ppm; visual score after 2 weeks; read-out: Post-emergent % control CHEAL.
Regarding `Nc1cc(-c2ccc(Cl)c(F)c2)nc(C(=O)O)c1Cl` [Compound 181, 4-Amino-3-chloro-6-(4-chloro-3-fluorophenyl)pyridine-2-carboxylic acid], the pest or weed control at 125 ppm came out at 100%.

As for `Nc1cc(-c2ccc(F)c(Cl)c2)nc(C(=O)O)c1Cl` [Compound 151, 4-Amino-3-chloro-6-(3-chloro-4-fluorophenyl)pyridine-2-carboxylic acid], the pest or weed control at 125 ppm was 100%.

The subject of another data set is Yellow nutsedge (Cyperus esculentus). Described as above. The data set is classed as in vivo. Conditions: Cyperus, post-emergence, 336 h, Table 1; rate 500 ppm; visual score after 2 weeks; read-out: Post-emergent % control CYPES. The procedure, abridged: as §1
`Nc1cc(-c2ccc(Cl)c(F)c2)nc(C(=O)O)c1Cl` [Compound 181, 4-Amino-3-chloro-6-(4-chloro-3-fluorophenyl)pyridine-2-carboxylic acid]: the pest or weed control at 500 ppm is 100%.

For `CCc1ccc(-c2cc(N)c(Cl)c(C(=O)O)n2)cc1` [Compound 175, 4-Amino-3-chloro-6-(4-ethylphenyl)pyridine-2-carboxylic acid], the pest or weed control at 500 ppm is 0%.

Regarding `Cc1ccc(-c2nc(C(=O)O)c(F)c(N)c2F)cc1` [Compound 203, 4-Amino-3,5-difluoro-6-(4-methylphenyl)pyridine-2-carboxylic acid], the pest or weed control at 500 ppm was 95%.

With `Nc1cc(-c2ccc(F)c(Cl)c2)nc(C(=O)O)c1Cl` [Compound 151, 4-Amino-3-chloro-6-(3-chloro-4-fluorophenyl)pyridine-2-carboxylic acid], the pest or weed control at 500 ppm is 85%.

The data set is the same for the next values; noted with them: Cyperus, post-emergence, 336 h, Table 2; rate 125 ppm; visual score after 2 weeks; read-out: Post-emergent % control CYPES.
On to `Nc1cc(-c2ccc(Cl)c(F)c2)nc(C(=O)O)c1Cl` [Compound 181, 4-Amino-3-chloro-6-(4-chloro-3-fluorophenyl)pyridine-2-carboxylic acid], for which the pest or weed control at 125 ppm is 85%.

For `Nc1cc(-c2ccc(F)c(Cl)c2)nc(C(=O)O)c1Cl` [Compound 151, 4-Amino-3-chloro-6-(3-chloro-4-fluorophenyl)pyridine-2-carboxylic acid], the pest or weed control at 125 ppm is 90%.

A further data set deals with Crabgrass(large) (Digitaria sanguinalis). Description: Preemergence herbicidal activity, soil spray. The data set is classed as in vivo. Conditions: Digitaria sanguinalis, pre-emergence, 504 h; Table 5; rate 140 ppm; visual score after 3 weeks; read-out: Pre-emergent % control DIGSA. The text has this: (§2) Seeds of the desired test plant species were planted in a soil matrix prepared by mixing a loam soil (43 percent silt, 19 percent clay, and 38 percent sand, with a pH of about 8.1 and an organic matter content of about 1.5 percent) and sand in a 70 to 30 ratio. The soil matrix was contained in plastic pots with a surface area of 113 square centimeters. When required to ensure good germination and healthy plants, a fungicide treatment and/or other chemical or physical treatment was applied. A weighed amount, determined by the highest rate to be tested, of each test compound was placed in a 20 mL glass vial and was dissolved in 4 mL of a 97:3 v/v (volume/volume) mixture of acetone and dimethyl sulfoxide to obtain concentrated stock solutions. […] The stock solutions obtained were diluted with a 99.9:0.1 mixture of water and Tween® 155 surfactant to obtain application solutions of known concentration. The solutions containing the highest concentration to be tested were prepared by diluting 2 mL aliquots of the stock solution with 15 mL of the mixture and lower concentrations were prepared by serial dilution of the stock solution. A 2.5 mL aliquot of each solution of known concentration was sprayed evenly onto the soil surface (113 sq. cm) of each seeded pot using a Cornwall 5.0 mL glass syringe fitted with a TeeJet TN-3 hollow cone nozzle to obtain thorough coverage of the soil in each pot. Control pots were sprayed in the same manner with the aqueous mixture. The treated pots and control pots were placed in a greenhouse maintained with an approximate 15 hr photoperiod and temperatures of about 23-29° C. during the day and 22-28° C. during the night. Nutrients and water were added on a regular basis and supplemental lighting was provided with overhead metal halide 1000-Watt lamps as necessary. The water was added by top-irrigation.
As to `Nc1cc(-c2ccc(Cl)c(F)c2)nc(C(=O)O)c1Cl` [Compound 181, 4-Amino-3-chloro-6-(4-chloro-3-fluorophenyl)pyridine-2-carboxylic acid], the pest or weed control at 140 ppm worked out at 100%.

Turning to `CCc1ccc(-c2cc(N)c(Cl)c(C(=O)O)n2)cc1` [Compound 175, 4-Amino-3-chloro-6-(4-ethylphenyl)pyridine-2-carboxylic acid], the pest or weed control at 140 ppm came out at 100%.

On to `Cc1ccc(-c2nc(C(=O)O)c(F)c(N)c2F)cc1` [Compound 203, 4-Amino-3,5-difluoro-6-(4-methylphenyl)pyridine-2-carboxylic acid], for which the pest or weed control at 140 ppm is 100%.

In the case of `Nc1cc(-c2ccc(F)c(Cl)c2)nc(C(=O)O)c1Cl` [Compound 151, 4-Amino-3-chloro-6-(3-chloro-4-fluorophenyl)pyridine-2-carboxylic acid], the pest or weed control at 140 ppm worked out at 100%.

For another data set, the system named is Giant Foxtail (Setaria faberi). Description: Preemergence herbicidal activity, soil spray. Format: in vivo. Conditions: Setaria faberi, pre-emergence, 504 h, Table 5; rate 140 ppm; visual score after 3 weeks; read-out: Pre-emergent % control SETFA.
From the text: as §2
As to `Nc1cc(-c2ccc(Cl)c(F)c2)nc(C(=O)O)c1Cl` [Compound 181, 4-Amino-3-chloro-6-(4-chloro-3-fluorophenyl)pyridine-2-carboxylic acid], the pest or weed control at 140 ppm was determined as 100%.

`CCc1ccc(-c2cc(N)c(Cl)c(C(=O)O)n2)cc1` [Compound 175, 4-Amino-3-chloro-6-(4-ethylphenyl)pyridine-2-carboxylic acid]: the pest or weed control at 140 ppm was determined as 95%.

With `Cc1ccc(-c2nc(C(=O)O)c(F)c(N)c2F)cc1` [Compound 203, 4-Amino-3,5-difluoro-6-(4-methylphenyl)pyridine-2-carboxylic acid], the pest or weed control at 140 ppm was found to be 85%.

Regarding `Nc1cc(-c2ccc(F)c(Cl)c2)nc(C(=O)O)c1Cl` [Compound 151, 4-Amino-3-chloro-6-(3-chloro-4-fluorophenyl)pyridine-2-carboxylic acid], the pest or weed control at 140 ppm came out at 100%.

The next data set has as its system Lambsquarter (Chenopodium album). The data set can be described thus: Preemergence herbicidal activity, soil spray. Format: in vivo. Conditions: Chenopodium album, pre-emergence, 504 h; Table 5; rate 140 ppm; visual score after 3 weeks; read-out: Pre-emergent % control CHEAL.
From the text: as §2
Consider `Nc1cc(-c2ccc(Cl)c(F)c2)nc(C(=O)O)c1Cl` [Compound 181, 4-Amino-3-chloro-6-(4-chloro-3-fluorophenyl)pyridine-2-carboxylic acid], for which the pest or weed control at 140 ppm turned out to be 100%.

As to `CCc1ccc(-c2cc(N)c(Cl)c(C(=O)O)n2)cc1` [Compound 175, 4-Amino-3-chloro-6-(4-ethylphenyl)pyridine-2-carboxylic acid], the pest or weed control at 140 ppm worked out at 100%.

Regarding `Cc1ccc(-c2nc(C(=O)O)c(F)c(N)c2F)cc1` [Compound 203, 4-Amino-3,5-difluoro-6-(4-methylphenyl)pyridine-2-carboxylic acid], the pest or weed control at 140 ppm came to 95%.

`Nc1cc(-c2ccc(F)c(Cl)c2)nc(C(=O)O)c1Cl` [Compound 151, 4-Amino-3-chloro-6-(3-chloro-4-fluorophenyl)pyridine-2-carboxylic acid]: the pest or weed control at 140 ppm was found to be 100%.

The next data set relates to Pigweed (redroot) (Amaranthus retroflexus). Description: Preemergence herbicidal activity, soil spray. Conditions: Amaranthus retroflexus, pre-emergence, 504 h; Table 5; rate 140 ppm; visual score after 3 weeks; read-out: Pre-emergent % control AMARE. Format: in vivo.
From the text: as §2
In the case of `Nc1cc(-c2ccc(Cl)c(F)c2)nc(C(=O)O)c1Cl` [Compound 181, 4-Amino-3-chloro-6-(4-chloro-3-fluorophenyl)pyridine-2-carboxylic acid], the pest or weed control at 140 ppm came to 100%.

Turning to `CCc1ccc(-c2cc(N)c(Cl)c(C(=O)O)n2)cc1` [Compound 175, 4-Amino-3-chloro-6-(4-ethylphenyl)pyridine-2-carboxylic acid], the pest or weed control at 140 ppm was 95%.

Consider `Cc1ccc(-c2nc(C(=O)O)c(F)c(N)c2F)cc1` [Compound 203, 4-Amino-3,5-difluoro-6-(4-methylphenyl)pyridine-2-carboxylic acid], for which the pest or weed control at 140 ppm is 100%.

With `Nc1cc(-c2ccc(F)c(Cl)c2)nc(C(=O)O)c1Cl` [Compound 151, 4-Amino-3-chloro-6-(3-chloro-4-fluorophenyl)pyridine-2-carboxylic acid], the pest or weed control at 140 ppm is 100%.

System in a further data set: not given
Experiment: not given
Settings: not given
Compound `Nc1cc(-c2ccc(Cl)c(F)c2)nc(C(=O)O)c1Cl` [Compound 181, 4-Amino-3-chloro-6-(4-chloro-3-fluorophenyl)pyridine-2-carboxylic acid] yielded a melting point of 156 to 157 °C.

Regarding `CCc1ccc(-c2cc(N)c(Cl)c(C(=O)O)n2)cc1` [Compound 175, 4-Amino-3-chloro-6-(4-ethylphenyl)pyridine-2-carboxylic acid], the melting point was determined as 152 °C.

With `Cc1ccc(-c2nc(C(=O)O)c(F)c(N)c2F)cc1` [Compound 203, 4-Amino-3,5-difluoro-6-(4-methylphenyl)pyridine-2-carboxylic acid], the melting point was in the range of 144 to 145 °C.

`Nc1cc(-c2ccc(F)c(Cl)c2)nc(C(=O)O)c1Cl` [Compound 151, 4-Amino-3-chloro-6-(3-chloro-4-fluorophenyl)pyridine-2-carboxylic acid] registered a melting point of 183 to 184 °C.
